According to paper PMC9791819 (Biochemistry and Biophysics Reports, 2022):

How the values were obtained:
[1] = target: T1, BiCMKEngA (Bifidobacterium longum, UniProt A0ACD7UKP5); assay: isothermal titration calorimetry; type: binding; conditions: 10 mM Tris pH 8.0, 300 mM NaCl, 50 mM MgCl2, 25 °C; with or without 1 mM CMP
T1 sequence (A0ACD7UKP5 1-709): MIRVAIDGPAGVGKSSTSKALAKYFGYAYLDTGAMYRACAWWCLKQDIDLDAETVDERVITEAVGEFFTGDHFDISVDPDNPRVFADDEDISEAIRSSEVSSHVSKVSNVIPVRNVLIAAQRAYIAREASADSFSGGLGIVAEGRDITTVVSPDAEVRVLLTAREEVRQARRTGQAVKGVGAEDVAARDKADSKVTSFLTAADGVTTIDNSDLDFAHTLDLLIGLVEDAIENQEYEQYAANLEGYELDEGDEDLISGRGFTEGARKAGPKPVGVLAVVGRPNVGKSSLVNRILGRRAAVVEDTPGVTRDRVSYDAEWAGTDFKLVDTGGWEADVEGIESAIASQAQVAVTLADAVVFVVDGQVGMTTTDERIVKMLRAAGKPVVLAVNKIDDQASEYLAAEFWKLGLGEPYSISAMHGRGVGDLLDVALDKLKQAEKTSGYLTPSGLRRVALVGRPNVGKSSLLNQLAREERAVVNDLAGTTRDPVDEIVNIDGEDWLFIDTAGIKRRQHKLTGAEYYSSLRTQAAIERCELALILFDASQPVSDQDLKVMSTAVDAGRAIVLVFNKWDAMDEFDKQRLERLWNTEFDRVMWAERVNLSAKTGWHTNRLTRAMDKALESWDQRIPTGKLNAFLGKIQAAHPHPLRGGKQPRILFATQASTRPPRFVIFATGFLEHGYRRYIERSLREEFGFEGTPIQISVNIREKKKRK

[2] = target: T2, BiEngA (Bifidobacterium longum, UniProt A0ACD7UKP5); assay: isothermal titration calorimetry; type: binding; conditions: 10 mM Tris pH 8.0, 300 mM NaCl, 50 mM MgCl2, 25 °C
T2 sequence (A0ACD7UKP5 222-709 limits assumed): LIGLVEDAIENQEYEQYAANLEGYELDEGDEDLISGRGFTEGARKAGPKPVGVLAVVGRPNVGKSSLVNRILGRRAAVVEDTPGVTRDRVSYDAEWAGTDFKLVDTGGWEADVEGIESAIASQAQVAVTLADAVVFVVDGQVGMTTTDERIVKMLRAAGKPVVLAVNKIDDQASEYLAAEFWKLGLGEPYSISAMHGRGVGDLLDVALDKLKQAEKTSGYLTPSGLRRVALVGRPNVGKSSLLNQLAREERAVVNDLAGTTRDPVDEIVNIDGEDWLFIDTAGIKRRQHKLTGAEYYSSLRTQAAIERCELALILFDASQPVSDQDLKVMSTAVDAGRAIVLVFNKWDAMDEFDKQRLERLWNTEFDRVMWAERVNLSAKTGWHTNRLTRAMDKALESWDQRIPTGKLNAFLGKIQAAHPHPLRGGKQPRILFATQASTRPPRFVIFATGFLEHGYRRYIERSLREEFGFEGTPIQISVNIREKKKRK

Nc1ncnc2c1ncn2[C@@H]1O[C@H](COP(=O)(O)OP(=O)(O)OP(=O)(O)O)[C@@H](O)[C@H]1O [ATP]
KD [1]: Relative dissociation constants of the full length and individual domains for ATP and GTP

Nc1nc2c(ncn2[C@@H]2O[C@H](COP(=O)(O)OP(=O)(O)OP(=O)(O)O)[C@@H](O)[C@H]2O)c(=O)[nH]1 [GTP]
KD [2]: the KD values for GTP, as determined from ITC experiments, were of the similar order
